# Assays:
# Assay type in all cases: in vivo
# [1] = system: ragweed (common ragweed, Ambrosia elatior); test: Test B pre-/postemergence plant response
# Summary of the method: (§1)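 Greenhouse pots, loam/sand soil; compound formulated with surfactant in non-phytotoxic solvent. Preemergence soil spray and postemergence spray at 1–2 leaf stage run simultaneously. Visual injury, 0–100, about 10 days post-treatment.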
# kochia (Kochia scoparia) [2] = test: Test B pre-/postemergence plant response
# Summary of the method: as §1
# [3] = system: Italian ryegrass (Lolium multiflorum); test: Test B pre-/postemergence plant response
# Summary of the method: as §1
# [4] = system: barnyardgrass (Echinochloa crus-galli); test: Test B pre-/postemergence plant response
# Summary of the method: as §1
# [5] = system: giant foxtail (Setaria faberii); test: Test B pre-/postemergence plant response
# Summary of the method: as §1
# [6] = system: wheat (Triticum aestivum); test: Test B pre-/postemergence plant response
# Summary of the method: as §1
# corn (Zea mays) = test: Test B pre-/postemergence plant response
# Summary of the method: as §1
# [7] = system: pigweed (Amaranthus retroflexus); test: Test B pre-/postemergence plant response
# Summary of the method: as §1
# kochia (Kochia scoparia) [8] = test: Test D postemergence plant response; details: for Kochia plant response rating: scale 0 to 100 (0 no effect, 100 complete control); for Plant response rating, Kochia: scale 0 to 100, 0 no effect, 100 complete control
# Summary of the method: (§2)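 Postemergence spray on plants 2–18 cm tall (1- to 4-leaf stage), grown in pots of peat/vermiculite medium. Plants were kept in a greenhouse for 13–15 days, then visually rated against untreated controls on a 0 (no effect) to 100 (complete control) scale.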
# [9] = system: chickweed (common chickweed, Stellaria media); test: Test D postemergence plant response; details: for Chickweed plant response rating: scale 0 to 100 (0 no effect, 100 complete control); for Plant response rating, Chickweed: scale 0 to 100, 0 no effect, 100 complete control
# Summary of the method: as §2
# wild oat (Avena fatua) = test: Test D postemergence plant response
# Summary of the method: as §2
# [10] = system: galium (catchweed bedstraw, Galium aparine); test: Test B postemergence plant response
# Summary of the method: (§3)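 Injury was assessed visually about 10 days after treatment, scored from 0 (no effect) to 100 (complete control) by comparison with untreated controls. Test chemicals had been applied postemergence to potted plants at the one- to two-leaf stage, grown in loam soil and sand in a greenhouse.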
# [11] = system: blackgrass (Alopecurus myosuroides); test: Test B postemergence plant response
# Summary of the method: as §3
# rice (Oryza sativa) = test: Test C flooded paddy test plant response; details: Flood, 250 g ai/ha; scale of 0 to 100 where 0 is no effect and 100 is complete control; 13 to 15 days
# Summary of the method: (§4)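 Flooded-pot format, 3 cm water over soil maintained for the test duration; test compounds dispensed into the water at the 2-leaf stage. Greenhouse holding 13 to 15 days. Plants evaluated visually relative to untreated controls, 0 meaning no effect and 100 complete control.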
# [12] = system: barnyardgrass (Echinochloa crus-galli); test: Test C flooded paddy test plant response; details: Flood, 250 g ai/ha; scale of 0 to 100 where 0 is no effect and 100 is complete control; 13 to 15 days
# Summary of the method: as §4
# [13] = system: small-flower umbrella sedge (Cyperus difformis); test: Test C flooded paddy test plant response; details: Flood, 250 g ai/ha; scale of 0 to 100 where 0 is no effect and 100 is complete control; 13 to 15 days
# Summary of the method: as §4
# [14] = system: ducksalad (Heteranthera limosa); test: Test C flooded paddy test plant response; details: Flood, 250 g ai/ha; scale of 0 to 100 where 0 is no effect and 100 is complete control; 13 to 15 days
# Summary of the method: as §4
# [15] = 125 g ai/ha, postemergence, 0 to 100 scale, 0 no effect, 100 complete control
# [16] = Postemergence, 500 g ai/ha, 0 to 100 scale (0 no effect, 100 complete control)
# [17] = Preemergence, 125 g ai/ha, 0 to 100 scale (0 no effect, 100 complete control)
# [18] = Preemergence, 500 g ai/ha, 0 to 100 scale where 0 is no effect and 100 is complete control
# [19] = 31 g ai/ha, scale 0 to 100 (0 no effect, 100 complete control)
# [20] = 62 g ai/ha, scale 0 to 100, 0 no effect, 100 complete control
# [21] = 125 g ai/ha, scale 0 to 100, 0 no effect, 100 complete control
# [22] = Preemergence, 125 g ai/ha, 0 to 100 scale where 0 is no effect and 100 is complete control
structure (smiles),measurement,setting,value
N#Cc1cccc(Oc2ncc(Cl)cn2)c1-c1cc(C(F)F)on1 [Compound 180],"Plant response rating, Ragweed",[1]; [15],50
same,"Plant response rating, Ragweed",[1]; [16],70
same,Ragweed plant response rating,[1]; [17],50
same,"Plant response rating, Ragweed",[1]; [18],70
same,"Plant response rating, Kochia",kochia (Kochia scoparia) [2]; [15],100
same,"Plant response rating, Kochia",kochia (Kochia scoparia) [2]; [16],100
same,Kochia plant response rating,kochia (Kochia scoparia) [2]; [17],100
same,"Plant response rating, Kochia",kochia (Kochia scoparia) [2]; [18],100
same,"Plant response rating, Ryegrass, Italian",[3]; [15],100
same,"Plant response rating, Ryegrass, Italian",[3]; [16],100
same,"Ryegrass, Italian plant response rating",[3]; [17],20
same,"Plant response rating, Ryegrass, Italian",[3]; [18],70
same,"Plant response rating, Barnyardgrass",[4]; [15],50
same,"Plant response rating, Barnyardgrass",[4]; [16],90
same,Barnyardgrass plant response rating,[4]; [17],20
same,"Plant response rating, Barnyardgrass",[4]; [18],80
same,"Plant response rating, Foxtail, Giant",[5]; [15],80
same,"Plant response rating, Foxtail, Giant",[5]; [16],100
same,"Foxtail, Giant plant response rating",[5]; [17],90
same,"Plant response rating, Foxtail, Giant",[5]; [18],100
same,"Plant response rating, Wheat",[6]; [15],60
same,"Plant response rating, Wheat",[6]; [16],90
same,"Plant response rating, Corn",corn (Zea mays); [15],20
same,"Plant response rating, Corn",corn (Zea mays); [16],70
same,"Plant response rating, Pigweed",[7]; [15],100
same,"Plant response rating, Pigweed",[7]; [16],100
same,Pigweed plant response rating,[7]; [17],100
same,"Plant response rating, Pigweed",[7]; [18],100
same,"Plant response rating (scale 0 to 100), Kochia",kochia (Kochia scoparia) [8]; 16 g ai/ha,85
same,Kochia plant response rating,kochia (Kochia scoparia) [8]; 31 g ai/ha,90
same,"Plant response rating, Kochia",kochia (Kochia scoparia) [8]; 62 g ai/ha,100
same,"Plant response rating, Kochia",kochia (Kochia scoparia) [8]; 125 g ai/ha,100
same,"Plant response rating (scale 0 to 100), Chickweed",[9]; 16 g ai/ha,60
same,Chickweed plant response rating,[9]; 31 g ai/ha,60
same,"Plant response rating, Chickweed",[9]; 62 g ai/ha,85
same,"Plant response rating, Chickweed",[9]; 125 g ai/ha,95
same,"Plant response rating (scale 0 to 100), Oat, Wild",wild oat (Avena fatua); 16 g ai/ha,0
same,"Oat, Wild plant response rating",wild oat (Avena fatua); [19],5
same,"Oat, Wild plant response rating",wild oat (Avena fatua); [20],5
same,"Plant response rating, Oat, Wild",wild oat (Avena fatua); [21],30
same,"Plant response rating, Galium",[10]; [15],100
same,"Plant response rating, Galium",[10]; [16],100
same,"Plant response rating, Blackgrass",[11]; [15],90
same,"Plant response rating, Blackgrass",[11]; [16],90
same,Rice plant response rating,rice (Oryza sativa),0
same,Barnyardgrass plant response rating,[12],0
same,"Sedge, Umbrella plant response rating",[13],80
same,Ducksalad plant response rating,[14],90
Cc1cc(-c2ccccc2Oc2ncc(Cl)cn2)no1 [Compound 153],"Plant response rating, Ragweed",[1]; [15],20
same,"Plant response rating, Ragweed",[1]; [16],100
same,Ragweed plant response rating,[1]; [17],0
same,"Plant response rating, Ragweed",[1]; [18],40
same,"Plant response rating, Kochia",kochia (Kochia scoparia) [2]; [15],90
same,"Plant response rating, Kochia",kochia (Kochia scoparia) [2]; [16],90
same,Kochia plant response rating,kochia (Kochia scoparia) [2]; [17],20
same,"Plant response rating, Kochia",kochia (Kochia scoparia) [2]; [18],100
same,"Plant response rating, Ryegrass, Italian",[3]; [15],30
same,"Plant response rating, Ryegrass, Italian",[3]; [16],60
same,"Ryegrass, Italian plant response rating",[3]; [17],0
same,"Plant response rating, Ryegrass, Italian",[3]; [18],20
same,"Plant response rating, Barnyardgrass",[4]; [15],0
same,"Plant response rating, Barnyardgrass",[4]; [16],70
same,Barnyardgrass plant response rating,[4]; [17],0
same,"Plant response rating, Barnyardgrass",[4]; [18],100
same,"Plant response rating, Foxtail, Giant",[5]; [15],20
same,"Plant response rating, Foxtail, Giant",[5]; [16],90
same,"Foxtail, Giant plant response rating",[5]; [17],30
same,"Plant response rating, Foxtail, Giant",[5]; [18],100
same,"Plant response rating, Wheat",[6]; [15],30
same,"Plant response rating, Wheat",[6]; [16],50
same,"Plant response rating, Corn",corn (Zea mays); [15],30
same,"Plant response rating, Corn",corn (Zea mays); [16],40
same,"Plant response rating, Pigweed",[7]; [15],100
same,"Plant response rating, Pigweed",[7]; [16],100
same,Pigweed plant response rating,[7]; [17],100
same,"Plant response rating, Pigweed",[7]; [18],100
same,Kochia plant response rating,kochia (Kochia scoparia) [8]; 31 g ai/ha,50
same,"Plant response rating, Kochia",kochia (Kochia scoparia) [8]; 62 g ai/ha,40
same,"Plant response rating, Kochia",kochia (Kochia scoparia) [8]; 125 g ai/ha,60
same,Chickweed plant response rating,[9]; 16 g ai/ha,20
same,Chickweed plant response rating,[9]; 31 g ai/ha,20
same,"Plant response rating, Chickweed",[9]; 62 g ai/ha,20
same,"Plant response rating, Chickweed",[9]; 125 g ai/ha,25
same,"Oat, Wild plant response rating",wild oat (Avena fatua); [19],0
same,"Plant response rating, Oat, Wild",wild oat (Avena fatua); [20],0
same,"Plant response rating, Oat, Wild",wild oat (Avena fatua); [21],0
same,"Plant response rating, Galium",[10]; [15],90
same,"Plant response rating, Galium",[10]; [16],100
same,"Plant response rating, Blackgrass",[11]; [15],40
same,"Plant response rating, Blackgrass",[11]; [16],90
same,Rice plant response rating,rice (Oryza sativa),0
same,Barnyardgrass plant response rating,[12],0
same,"Sedge, Umbrella plant response rating",[13],0
same,Ducksalad plant response rating,[14],0
Cc1cc(-c2ccccc2Oc2ncc(Cl)cn2)on1 [Compound 58],"Plant response rating, Ragweed",[1]; [15],100
same,"Plant response rating, Ragweed",[1]; [16],100
same,"Plant response rating, Ragweed",[1]; [22],70
same,"Plant response rating, Ragweed",[1]; [18],80
same,"Plant response rating, Kochia",kochia (Kochia scoparia) [2]; [15],100
same,"Plant response rating, Kochia",kochia (Kochia scoparia) [2]; [16],100
same,"Plant response rating, Kochia",kochia (Kochia scoparia) [2]; [22],80
same,"Plant response rating, Kochia",kochia (Kochia scoparia) [2]; [18],100
same,"Plant response rating, Ryegrass, Italian",[3]; [15],20
same,"Plant response rating, Ryegrass, Italian",[3]; [16],80
same,"Plant response rating, Ryegrass, Italian",[3]; [22],0
same,"Plant response rating, Ryegrass, Italian",[3]; [18],20
same,"Plant response rating, Barnyardgrass",[4]; [15],70
same,"Plant response rating, Barnyardgrass",[4]; [16],90
same,"Plant response rating, Barnyardgrass",[4]; [22],60
same,"Plant response rating, Barnyardgrass",[4]; [18],100
same,"Plant response rating, Foxtail, Giant",[5]; [15],70
same,"Plant response rating, Foxtail, Giant",[5]; [16],90
same,"Plant response rating, Foxtail, Giant",[5]; [22],90
same,"Plant response rating, Foxtail, Giant",[5]; [18],100
same,"Plant response rating, Wheat",[6]; [15],0
same,"Plant response rating, Wheat",[6]; [16],50
same,"Plant response rating, Corn",corn (Zea mays); [15],0
same,"Plant response rating, Corn",corn (Zea mays); [16],50
same,"Plant response rating, Pigweed",[7]; [15],100
same,"Plant response rating, Pigweed",[7]; [16],100
same,"Plant response rating, Pigweed",[7]; [22],100
same,"Plant response rating, Pigweed",[7]; [18],100
same,Kochia plant response rating,kochia (Kochia scoparia) [8]; 16 g ai/ha,35
same,Kochia plant response rating,kochia (Kochia scoparia) [8]; 31 g ai/ha,50
same,"Plant response rating, Kochia",kochia (Kochia scoparia) [8]; 62 g ai/ha,60
same,"Plant response rating, Kochia",kochia (Kochia scoparia) [8]; 125 g ai/ha,80
same,Chickweed plant response rating,[9]; 16 g ai/ha,5
same,Chickweed plant response rating,[9]; 31 g ai/ha,10
same,"Plant response rating, Chickweed",[9]; 62 g ai/ha,15
same,"Plant response rating, Chickweed",[9]; 125 g ai/ha,30
same,"Oat, Wild plant response rating","wild oat (Avena fatua); 16 g ai/ha, scale 0 to 100 (0 no effect, 100 complete control)",0
same,"Oat, Wild plant response rating",wild oat (Avena fatua); [19],0
same,"Plant response rating, Oat, Wild",wild oat (Avena fatua); [20],0
same,"Plant response rating, Oat, Wild",wild oat (Avena fatua); [21],0
same,"Plant response rating, Galium",[10]; [15],100
same,"Plant response rating, Galium",[10]; [16],100
same,"Plant response rating, Blackgrass",[11]; [15],70
same,"Plant response rating, Blackgrass",[11]; [16],90
same,Rice plant response rating,rice (Oryza sativa),0
same,Barnyardgrass plant response rating,[12],0
same,"Sedge, Umbrella plant response rating",[13],40
same,Ducksalad plant response rating,[14],80

# From patent publication US10131652B2, “Pyrimidinyloxy benzene derivatives as herbicides” (E. I. DU PONT DE NEMOURS AND COMPANY, priority 2014, dated 2018)
